Measurements from PubChem BioAssay (NCI).
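Cultured in 96-well plates, cells were exposed to test compound for 48 hours across five concentrations. TGI denotes the concentration required for complete inhibition of growth.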

Legend:
Experiment in all cases: DTP human tumour cell line panel, 48 h
786-0 renal = system: 786-0 renal
A498 renal = system: A498 renal
A549 NSCLC = system: A549 NSCLC
ACHN renal = system: ACHN renal
BT-549 breast = system: BT-549 breast
CCRF-CEM leukemia = system: CCRF-CEM leukemia
COLO 205 colon = system: COLO 205 colon
DU-145 prostate = system: DU-145 prostate
EKVX NSCLC = system: EKVX NSCLC
HCC-2998 colon = system: HCC-2998 colon
HCT-116 colon = system: HCT-116 colon
HCT-15 colon = system: HCT-15 colon
HL-60(TB) leukemia = system: HL-60(TB) leukemia
HOP-62 NSCLC = system: HOP-62 NSCLC
HS 578T breast = system: HS 578T breast
HT29 colon = system: HT29 colon
IGROV1 ovarian = system: IGROV1 ovarian
K-562 leukemia = system: K-562 leukemia
KM12 colon = system: KM12 colon
LOX IMVI melanoma = system: LOX IMVI melanoma
M14 melanoma = system: M14 melanoma
MALME-3M melanoma = system: MALME-3M melanoma
MCF7 breast = system: MCF7 breast
MDA-MB-231 breast = system: MDA-MB-231 breast
MDA-MB-435 = system: MDA-MB-435
MOLT-4 leukemia = system: MOLT-4 leukemia
NCI-H226 lung = system: NCI-H226 lung
NCI-H23 lung = system: NCI-H23 lung
NCI-H460 lung = system: NCI-H460 lung
NCI-H522 lung = system: NCI-H522 lung
NCI/ADR-RES ovarian = system: NCI/ADR-RES ovarian
OVCAR-3 ovarian = system: OVCAR-3 ovarian
OVCAR-4 ovarian = system: OVCAR-4 ovarian
OVCAR-5 ovarian = system: OVCAR-5 ovarian
PC-3 prostate = system: PC-3 prostate
RPMI-8226 leukemia = system: RPMI-8226 leukemia
RXF 393 renal = system: RXF 393 renal
SF-268 CNS = system: SF-268 CNS
SF-295 CNS = system: SF-295 CNS
SF-539 CNS = system: SF-539 CNS
SK-MEL-2 melanoma = system: SK-MEL-2 melanoma
SK-MEL-28 melanoma = system: SK-MEL-28 melanoma
SK-MEL-5 melanoma = system: SK-MEL-5 melanoma
SK-OV-3 ovarian = system: SK-OV-3 ovarian
SN12C renal = system: SN12C renal
SNB-19 CNS = system: SNB-19 CNS
SNB-75 CNS = system: SNB-75 CNS
SR leukemia = system: SR leukemia
SW-620 colon = system: SW-620 colon
T-47D breast = system: T-47D breast
TK-10 renal = system: TK-10 renal
U251 CNS = system: U251 CNS
UACC-62 melanoma = system: UACC-62 melanoma
UO-31 renal = system: UO-31 renal
CAKI-1 renal = system: CAKI-1 renal
HOP-92 NSCLC = system: HOP-92 NSCLC
OVCAR-8 ovarian = system: OVCAR-8 ovarian
UACC-257 melanoma = system: UACC-257 melanoma

Q: With `CNc1ccccc1S(=O)(=O)c1ccccc1[N+](=O)[O-]` as the compound, how does the TGI (786-0 renal) read?
A: > 100 µM

Q: And the TGI (A498 renal)?
A: > 100 µM

Q: And the TGI (A549 NSCLC)?
A: > 100 µM

Q: What about the TGI (ACHN renal) of the same compound?
A: > 100 µM

Q: What about the TGI (BT-549 breast) of the same compound?
A: 65.3 µM

Q: What about the TGI (CCRF-CEM leukemia) of the same compound?
A: > 100 µM

Q: And the TGI (COLO 205 colon)?
A: > 100 µM

Q: What about the TGI (DU-145 prostate) of the same compound?
A: > 100 µM

Q: What about the TGI (EKVX NSCLC) of the same compound?
A: > 100 µM

Q: And the TGI (HCC-2998 colon)?
A: > 100 µM

Q: What about the TGI (HCT-116 colon) of the same compound?
A: > 100 µM

Q: And the TGI (HCT-15 colon)?
A: > 100 µM

Q: What about the TGI (HL-60(TB) leukemia) of the same compound?
A: > 100 µM

Q: What about the TGI (HOP-62 NSCLC) of the same compound?
A: > 100 µM

Q: And the TGI (HS 578T breast)?
A: > 100 µM

Q: What about the TGI (HT29 colon) of the same compound?
A: > 100 µM

Q: What about the TGI (IGROV1 ovarian) of the same compound?
A: > 100 µM

Q: And the TGI (K-562 leukemia)?
A: > 100 µM

Q: And the TGI (KM12 colon)?
A: > 100 µM

Q: What about the TGI (LOX IMVI melanoma) of the same compound?
A: > 100 µM

Q: And the TGI (M14 melanoma)?
A: > 100 µM

Q: What about the TGI (MALME-3M melanoma) of the same compound?
A: > 100 µM

Q: And the TGI (MCF7 breast)?
A: > 100 µM

Q: What about the TGI (MDA-MB-231 breast) of the same compound?
A: > 100 µM

Q: And the TGI (MDA-MB-435)?
A: > 100 µM

Q: What about the TGI (MOLT-4 leukemia) of the same compound?
A: > 100 µM

Q: And the TGI (NCI-H226 lung)?
A: > 100 µM

Q: And the TGI (NCI-H23 lung)?
A: > 100 µM

Q: What about the TGI (NCI-H460 lung) of the same compound?
A: > 100 µM

Q: And the TGI (NCI-H522 lung)?
A: > 100 µM

Q: What about the TGI (NCI/ADR-RES ovarian) of the same compound?
A: > 100 µM

Q: And the TGI (OVCAR-3 ovarian)?
A: > 100 µM

Q: And the TGI (OVCAR-4 ovarian)?
A: > 100 µM

Q: What about the TGI (OVCAR-5 ovarian) of the same compound?
A: > 100 µM

Q: What about the TGI (PC-3 prostate) of the same compound?
A: > 100 µM

Q: What about the TGI (RPMI-8226 leukemia) of the same compound?
A: > 100 µM

Q: What about the TGI (RXF 393 renal) of the same compound?
A: > 100 µM

Q: And the TGI (SF-268 CNS)?
A: > 100 µM

Q: What about the TGI (SF-295 CNS) of the same compound?
A: > 100 µM

Q: And the TGI (SF-539 CNS)?
A: > 100 µM

Q: What about the TGI (SK-MEL-2 melanoma) of the same compound?
A: > 100 µM

Q: What about the TGI (SK-MEL-28 melanoma) of the same compound?
A: > 100 µM

Q: And the TGI (SK-MEL-5 melanoma)?
A: > 100 µM

Q: And the TGI (SK-OV-3 ovarian)?
A: > 100 µM

Q: What about the TGI (SN12C renal) of the same compound?
A: > 100 µM

Q: And the TGI (SNB-19 CNS)?
A: > 100 µM

Q: And the TGI (SNB-75 CNS)?
A: > 100 µM

Q: What about the TGI (SR leukemia) of the same compound?
A: > 100 µM

Q: What about the TGI (SW-620 colon) of the same compound?
A: > 100 µM

Q: And the TGI (T-47D breast)?
A: > 100 µM

Q: What about the TGI (TK-10 renal) of the same compound?
A: > 100 µM

Q: What about the TGI (U251 CNS) of the same compound?
A: > 100 µM

Q: What about the TGI (UACC-62 melanoma) of the same compound?
A: > 100 µM

Q: What about the TGI (UO-31 renal) of the same compound?
A: > 100 µM

Q: Which TGI (786-0 renal) does the source give for `COc1ccc(P2(=S)OCCOP(=S)(c3ccc(OC)cc3)S2)cc1` (stereo not drawn) here?
A: > 42 µM

Q: And the TGI (A498 renal)?
A: 7.05 µM

Q: And the TGI (A549 NSCLC)?
A: > 100 µM

Q: What about the TGI (ACHN renal) of the same compound?
A: > 100 µM

Q: And the TGI (BT-549 breast)?
A: > 79.9 µM

Q: What about the TGI (CAKI-1 renal) of the same compound?
A: > 100 µM

Q: What about the TGI (CCRF-CEM leukemia) of the same compound?
A: 25.1 µM

Q: What about the TGI (COLO 205 colon) of the same compound?
A: 55.8 µM

Q: And the TGI (DU-145 prostate)?
A: > 100 µM

Q: And the TGI (EKVX NSCLC)?
A: > 100 µM

Q: What about the TGI (HCC-2998 colon) of the same compound?
A: 7.5 µM

Q: And the TGI (HCT-116 colon)?
A: > 100 µM

Q: And the TGI (HCT-15 colon)?
A: > 100 µM

Q: What about the TGI (HL-60(TB) leukemia) of the same compound?
A: > 23.3 µM

Q: And the TGI (HOP-62 NSCLC)?
A: > 100 µM

Q: And the TGI (HOP-92 NSCLC)?
A: > 100 µM

Q: And the TGI (HS 578T breast)?
A: > 100 µM

Q: What about the TGI (IGROV1 ovarian) of the same compound?
A: > 100 µM

Q: And the TGI (K-562 leukemia)?
A: > 100 µM

Q: What about the TGI (KM12 colon) of the same compound?
A: > 100 µM

Q: And the TGI (LOX IMVI melanoma)?
A: 42.6 µM

Q: And the TGI (M14 melanoma)?
A: > 100 µM

Q: What about the TGI (MALME-3M melanoma) of the same compound?
A: > 100 µM

Q: And the TGI (MCF7 breast)?
A: 19.4 µM

Q: What about the TGI (MDA-MB-231 breast) of the same compound?
A: > 100 µM

Q: What about the TGI (MDA-MB-435) of the same compound?
A: 40.7 µM

Q: And the TGI (MOLT-4 leukemia)?
A: > 39.5 µM

Q: What about the TGI (NCI-H226 lung) of the same compound?
A: > 100 µM

Q: And the TGI (NCI-H23 lung)?
A: > 100 µM

Q: And the TGI (NCI-H460 lung)?
A: > 32.2 µM

Q: And the TGI (NCI-H522 lung)?
A: 6.11 µM

Q: What about the TGI (NCI/ADR-RES ovarian) of the same compound?
A: > 100 µM

Q: And the TGI (OVCAR-3 ovarian)?
A: 6.11 µM

Q: And the TGI (OVCAR-4 ovarian)?
A: > 100 µM

Q: And the TGI (OVCAR-5 ovarian)?
A: > 100 µM

Q: And the TGI (OVCAR-8 ovarian)?
A: > 61.6 µM

Q: And the TGI (PC-3 prostate)?
A: 5.48 µM

Q: What about the TGI (SF-268 CNS) of the same compound?
A: > 100 µM

Q: And the TGI (SF-295 CNS)?
A: > 27.6 µM

Q: What about the TGI (SF-539 CNS) of the same compound?
A: 6.7 µM

Q: And the TGI (SK-MEL-2 melanoma)?
A: > 100 µM

Q: What about the TGI (SK-MEL-28 melanoma) of the same compound?
A: > 100 µM

Q: And the TGI (SK-MEL-5 melanoma)?
A: > 41.9 µM

Q: What about the TGI (SN12C renal) of the same compound?
A: 33.9 µM

Q: What about the TGI (SNB-19 CNS) of the same compound?
A: > 100 µM

Q: And the TGI (SNB-75 CNS)?
A: > 100 µM

Q: And the TGI (SR leukemia)?
A: > 100 µM

Q: What about the TGI (SW-620 colon) of the same compound?
A: > 100 µM

Q: And the TGI (T-47D breast)?
A: > 100 µM

Q: What about the TGI (TK-10 renal) of the same compound?
A: > 100 µM

Q: What about the TGI (U251 CNS) of the same compound?
A: > 100 µM

Q: What about the TGI (UACC-257 melanoma) of the same compound?
A: > 79.8 µM

Q: What about the TGI (UACC-62 melanoma) of the same compound?
A: > 100 µM

Q: And the TGI (UO-31 renal)?
A: > 50.7 µM
